Source: ChEMBL document CHEMBL4145498, “Novel inhibitors of the rRNA ErmC' methyltransferase to block resistance to macrolides, lincosamides, streptogramine B antibiotics” (Eur J Med Chem, 2018)

Columns and labels:
[1] = molecular target: T1, rRNA adenine N-6-methyltransferase (Staphylococcus aureus (strain N315), UniProt P0A0H2); test: Inhibition of bacterial C-terminal His6-tagged ErmC' (unknown origin) expressed in Escherichia coli BL21(DE3) assessed as decrease in rRNA methylation using [methyl-3H]AdoMet measured after 1 hr; set-up: species or system Bacteria
T1 sequence (P0A0H2 whole entry): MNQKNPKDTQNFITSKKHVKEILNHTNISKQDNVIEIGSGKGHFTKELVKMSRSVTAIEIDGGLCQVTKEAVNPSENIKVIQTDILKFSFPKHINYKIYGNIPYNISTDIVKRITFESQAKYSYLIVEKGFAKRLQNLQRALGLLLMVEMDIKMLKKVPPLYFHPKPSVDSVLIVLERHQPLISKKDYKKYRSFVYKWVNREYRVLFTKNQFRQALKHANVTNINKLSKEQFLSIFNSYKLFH

[2] = molecular target: T2, rRNA adenine N-6-methyltransferase (Staphylococcus aureus (strain N315)) (UniProt P0A0H2); test: Inhibition of recombinant bacterial ErmC' expressed in Escherichia coli DH5alpha assessed as potentiation of erythromycin-mediated growth inhibition by measuring erythromycin MIC after 18 hrs by dilution method (reference value: > 2560 mg/L); conditions: Bacteria
T2 sequence (whole entry): T1 sequence (P0A0H2 whole entry)

Escherichia coli = test: Antibacterial activity against Escherichia coli DH5alpha expressing recombinant bacterial ErmC' after 18 hrs by dilution method; type: ADME, organism-based, DH5[alpha]
[3] = molecular target: T2, rRNA adenine N-6-methyltransferase (Staphylococcus aureus (strain N315)); test: Uncompetitive inhibition of bacterial C-terminal His6-tagged ErmC' expressed in Escherichia coli BL21(DE3) in presence of [methyl-3H]SAM; conditions: Bacteria
HEK293 = test: Cytotoxicity against HEK293 cells assessed as decrease in cell viability after 24 hrs by MTT assay; type: cell-based; conditions: human, hek293, 24 h
[4] = Cytotoxicity against HEK293 cells assessed as cell viability at 1000 uM after 24 hrs by MTT assay relative to control; type: cell-based; conditions: human, read-out: Activity
[5] = Cytotoxicity against HEK293 cells assessed as cell viability at 125 uM after 24 hrs by MTT assay relative to control; type: cell-based; conditions: human, read-out: Activity
[6] = Cytotoxicity against HEK293 cells assessed as cell viability at 125 to 1000 uM after 24 hrs by MTT assay relative to control; type: cell-based; conditions: human
[7] = molecular target: rRNA adenine N-6-methyltransferase (Staphylococcus aureus, UniProt P02979); test: Inhibition of Staphylococcus aureus ErmC' expressed in Bacillus subtilis BD170 assessed as decrease in rRNA methylation using [methyl-3H]AdoMet measured after 120 mins by beta-plate counting method
Sequence of rRNA adenine N-6-methyltransferase (Staphylococcus aureus, UniProt P02979) (P02979 whole entry): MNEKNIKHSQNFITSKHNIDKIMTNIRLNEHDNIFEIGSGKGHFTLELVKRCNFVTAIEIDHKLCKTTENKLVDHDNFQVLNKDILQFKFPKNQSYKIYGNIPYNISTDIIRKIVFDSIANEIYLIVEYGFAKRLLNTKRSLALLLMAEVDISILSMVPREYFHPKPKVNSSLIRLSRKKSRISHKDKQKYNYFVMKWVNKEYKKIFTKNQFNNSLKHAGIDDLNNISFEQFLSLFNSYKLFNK

[8] = molecular target: T2, rRNA adenine N-6-methyltransferase (Staphylococcus aureus (strain N315)); test: Inhibition of bacterial C-terminal His6-tagged ErmC' expressed in Escherichia coli BL21(DE3) assessed as decrease of protein binding to [gamma-33P]ATP-labeled 32-nt oligonucleotide at 5.01 mM after 30 mins by filter binding assay relative to control; conditions: Bacteria
[9] = molecular target: T2, rRNA adenine N-6-methyltransferase (Staphylococcus aureus (strain N315)); test: Inhibition of bacterial C-terminal His6-tagged ErmC' expressed in Escherichia coli BL21(DE3) assessed as decrease of protein binding to [gamma-33P]ATP-labeled 32-nt oligonucleotide at 6.25 mM after 30 mins by filter binding assay relative to control; conditions: Bacteria

Structure (SMILES)	MIC [2]	MIC (Escherichia coli)	further results
O=C(CSc1nc2[nH]cnc2c(=O)[nH]1)Nc1ccc(O)cc1	2560 µg/mL	>= 100 mg/L	IC50 [1]: Not Active
O=C(c1cnn[nH]1)N1CCN(c2ccc(C(F)(F)F)cn2)CC1	2560 µg/mL	>= 100 mg/L	
Nn1c(SCc2nc3ccccc3[nH]2)nnc1-c1ccncc1	> 2560 µg/mL	>= 100 mg/L	
O=C(NCc1cccc(Cn2ccnc2)c1)c1cc2ccccc2o1	> 2560 µg/mL	>= 100 mg/L	
Cc1cc(S(N)(=O)=O)cc(NC(=O)Cn2cnc(C#N)n2)c1C	2560 µg/mL	>= 100 mg/L	IC50 [1]: Not Active
O=C(NCCNc1ccc(C(F)(F)F)cn1)c1cnccn1	2000 µg/mL	>= 100 mg/L	IC50 [1]: Not Active
Cc1nccn1-c1ccc(CNc2nc3ccccc3o2)cc1F	2000 µg/mL	>= 100 mg/L	IC50 [1]: Not Active
O=C(Nc1ccncc1)c1ccn(COc2ccc(F)c(Cl)c2)n1	2000 µg/mL	>= 100 mg/L	
Cc1cnc(C(=O)NCCNc2ncccc2C(F)(F)F)cn1	2560 µg/mL	>= 100 mg/L	IC50 [1]: Not Active
O=C(NCCNc1ncccc1C(F)(F)F)c1cnccn1	2560 µg/mL	>= 100 mg/L	IC50 [1]: Not Active
O=C(c1ccn[nH]1)N1CCN(c2ccc(C(F)(F)F)cn2)CC1	2560 µg/mL	>= 100 mg/L	IC50 [1]: Not Active
O=C(c1cc(Cl)c[nH]1)N1CCN(c2ncc(C(F)(F)F)cc2Cl)CC1	2000 µg/mL	>= 100 mg/L	
Cc1occc1C(=O)Nc1nc(CC(=O)Nc2ccccc2)cs1	2560 µg/mL	>= 100 mg/L	
CN(C)c1ccc(CNC(=O)c2ccc(-n3cncn3)cc2)cc1	2000 µg/mL	>= 100 mg/L	
FC(F)(F)c1ccc(N2CCN(Cc3c[nH]c(-c4ccccc4)n3)CC2)nc1	2560 µg/mL	>= 100 mg/L	
CCCc1cc(C(=O)Nc2cccc(OCc3ccncc3)c2)[nH]n1	> 2560 µg/mL	>= 100 mg/L	
O=C(NCCOc1ccc2c(c1)OCO2)c1ccc2ccccc2n1	> 2560 µg/mL	>= 100 mg/L	
O=C(Nc1cccc(NC(=O)c2cccc(F)c2)c1)c1ccncc1	2560 µg/mL	>= 100 mg/L	
Cc1cccc(Nc2nc(C(=O)N3CCN(c4ccc(C(F)(F)F)cn4)CC3)cs2)n1	2560 µg/mL	>= 100 mg/L	alphaKi [3]: 155 µM; Activity (HEK293): Dose-dependent effect; viability at 24 h, 1000 µM [4]: 16%; viability at 24 h, 125 µM [5]: 59%
Nc1nc(N)nc(COC(=O)c2occc2COc2ccccc2)n1	2560 µg/mL	>= 100 mg/L	IC50 [1]: Not Active
Cc1nccc(C(=O)Nc2cc(NC(=O)c3ccccc3)ccc2C)n1	2560 µg/mL	>= 100 mg/L	IC50 [1]: Not Active
O=C(c1csc(Nc2ncccn2)n1)N1CCN(c2ccc(C(F)(F)F)cn2)CC1	2000 µg/mL	>= 100 mg/L	viability at 24 h, up to 1000 µM ([6]; read-out: Activity): 59 to 67%
CC(=O)Nc1ccc(S(=O)(=O)NCCc2ccncc2)cc1	> 2560 µg/mL	>= 100 mg/L	
O=C(NCCSc1ccccc1)c1ccc(-n2cncn2)cc1	2560 µg/mL	>= 100 mg/L	

Structure (SMILES)	MIC [2]	MIC (Escherichia coli)	further results
CC(=O)Nc1nc(C)c(-c2csc(Nc3cccc(O)c3)n2)s1	2000 µg/mL	>= 100 mg/L	viability at 24 h, up to 1000 µM ([6]; read-out: %max): 4.5%
FC(F)(F)c1ccc(N2CCN(Cc3cn4ccccc4n3)CC2)nc1	2560 µg/mL	>= 100 mg/L	
Nc1nc(N)nc(CSc2nnc(NCc3ccccc3)s2)n1	2560 µg/mL	>= 100 mg/L	
O=C(CCn1cncn1)NCc1cccc(NC(=O)C2CCCC2)c1	2560 µg/mL	>= 100 mg/L	IC50 [1]: Not Active
O=C(Nc1nccs1)c1cc(-c2ccccn2)nc2ccccc12	2560 µg/mL	>= 100 mg/L	
O=C(Cc1cn2ccsc2n1)Nc1cccc(N2CCCC2=O)c1	2560 µg/mL	>= 100 mg/L	
O=C(c1cn(-c2ccccc2)nn1)N1CCN(c2ccc(C(F)(F)F)cn2)CC1	2560 µg/mL	>= 100 mg/L	
Cn1cnnc1-c1cccc(NC(=O)Cc2cccc(F)c2)c1	2560 µg/mL	>= 100 mg/L	
COc1ccc(C(=O)CSc2nc(O)cc(=O)[nH]2)cc1	2000 µg/mL	>= 100 mg/L	
O=C(Nc1ccn(CCc2ccncc2)n1)Nc1ccc(F)cc1F	> 2560 µg/mL	>= 100 mg/L	
O=C(Nc1cccc(NCc2ccncc2)c1)c1ccccc1Cl	2560 µg/mL	>= 100 mg/L	
O=C(Cc1cccc(F)c1)Nc1cccc(-c2ccn[nH]2)c1	2560 µg/mL	>= 100 mg/L	
O=C(c1cc(C2CC2)n[nH]1)N1CCN(c2ccc(C(F)(F)F)cn2)CC1	2560 µg/mL	>= 100 mg/L	
CC(C)c1ccc(NC(=S)N/N=C/c2cc(Cl)cc(Cl)c2O)cc1			IC50 [7]: 0.45 µM
CC(=O)c1c[nH]c(C(=O)N2CCN(c3ccc(C(F)(F)F)cn3)CC2)c1	2560 µg/mL	>= 100 mg/L	
O=C(CSc1nnc2c(n1)[nH]c1ccccc12)Nc1ccccn1	2560 µg/mL	>= 100 mg/L	
O=C(c1c[nH]c(=O)[nH]1)N1CCN(c2ccc(C(F)(F)F)cn2)CC1	2560 µg/mL	>= 100 mg/L	viability at 24 h, 1000 µM [4]: 68%; viability at 24 h, 125 µM [5]: 58%; fold change (FC) [8]: 2
O=C(c1n[nH]c(=O)[nH]1)N1CCN(c2ccc(C(F)(F)F)cn2)CC1	2560 µg/mL	>= 100 mg/L	
O=C(NC1CCN(c2nc3ccccc3s2)CC1)c1ccncc1	2560 µg/mL	>= 100 mg/L	
Cc1cnc(C(=O)NCCNc2ccc(C(F)(F)F)cn2)cn1	2560 µg/mL	>= 100 mg/L	IC50 [1]: Not Active
CCC1N=C(C)C(CN2CCN(c3ccc(C(F)(F)F)cn3)CC2)=N1 (stereo not drawn)	2000 µg/mL	>= 100 mg/L	IC50 [1]: Not Active
O=C(CSc1nc2cccnc2[nH]1)Nc1nccs1	2000 µg/mL	>= 100 mg/L	
COC(=O)c1sc2ccccc2c1OS(=O)(=O)c1ccc(Cl)cc1			fold change (FC) [9]: 3
